According to PubChem BioAssay (NCI):
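Compound exposure: 48 hours, 5 concentrations, 96-well plates. At the GI50, growth is halved. TGI is the concentration that stops growth completely.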

Tests used:
Assay in all cases: NCI-60 cell line screen, 48 h
NCI-H460 lung = tested on: NCI-H460 lung
SN12C renal = tested on: SN12C renal
LOX IMVI melanoma = tested on: LOX IMVI melanoma
SR leukemia = tested on: SR leukemia
OVCAR-4 ovarian = tested on: OVCAR-4 ovarian
SK-MEL-5 melanoma = tested on: SK-MEL-5 melanoma
NCI-H23 lung = tested on: NCI-H23 lung
SF-268 CNS = tested on: SF-268 CNS
UACC-257 melanoma = tested on: UACC-257 melanoma
RXF 393 renal = tested on: RXF 393 renal

| Compound | GI50 (NCI-H460 lung) [µM] | TGI (NCI-H460 lung) [µM] | GI50 (SN12C renal) [µM] | TGI (SN12C renal) [µM] | GI50 (LOX IMVI melanoma) [µM] | TGI (LOX IMVI melanoma) [µM] | GI50 (SR leukemia) [µM] | TGI (SR leukemia) [µM] | GI50 (OVCAR-4 ovarian) [µM] | TGI (OVCAR-4 ovarian) [µM] | GI50 (SK-MEL-5 melanoma) [µM] | TGI (SK-MEL-5 melanoma) [µM] | GI50 (NCI-H23 lung) [µM] | TGI (NCI-H23 lung) [µM] | GI50 (SF-268 CNS) [µM] | TGI (SF-268 CNS) [µM] | GI50 (UACC-257 melanoma) [µM] | TGI (UACC-257 melanoma) [µM] | TGI (RXF 393 renal) [µM] | GI50 (RXF 393 renal) [µM] |
| --- | --- | --- | --- | --- | --- | --- | --- | --- | --- | --- | --- | --- | --- | --- | --- | --- | --- | --- | --- | --- |
| CC[C@H](C)[C@H](NC(=O)c1cnccn1)C(=O)N(C)[C@H](C[C@@H](OC(C)=O)c1nc(C(=O)N[C@@H](Cc2ccccc2)C[C@H](C)C(=O)OC)cs1)C(C)C | 1.15 | > 33.3 | 2.22 | > 33.3 | 1.63 | > 33.3 | 0.048 | > 33.3 | 2.52 | > 33.3 | 0.809 | 2.87 | 1.69 | > 33.3 | 1.66 | > 33.3 | 5.21 | 22.1 | – | – |
| COc1ccc2nc(-c3ccccc3)cc(Nc3cccc(/C(C)=N\O)c3)c2c1 | 6.84 | > 100 | 6.05 | 35.4 | – | – | 3.36 | > 100 | 5.65 | > 100 | 13.2 | 41 | 22.4 | > 100 | 3.34 | 9.06 | 19.4 | > 100 | – | – |
| CCc1ccccc1NC(=O)C(=O)C(C(=O)c1ccc(OC)cc1)c1ccc(OC)cc1 (configuration not stated) | – | > 100 | – | > 100 | – | > 100 | – | – | – | > 100 | – | > 100 | – | > 100 | – | > 100 | – | > 100 | – | – |
| Cc1cc([N+](=O)[O-])c(C)c2c1[nH]c1ccc(/C(CCC3CCCC3)=N\N)cc12 | – | > 100 | – | 29.7 | – | 29.6 | – | 55.9 | – | 53.9 | – | 37.7 | – | 32.7 | – | 37.5 | – | 42.7 | – | – |
| N#CC(C#N)SCc1ccccc1 | – | > 41.6 | – | > 100 | – | > 19.8 | – | – | – | > 100 | – | > 85.6 | – | 89.1 | – | > 100 | – | > 100 | 79 | – |
| COc1cc2nncc(Sc3cnnc4ccccc34)c2cc1OC | – | 50.4 | – | – | – | 63.8 | – | – | – | > 100 | – | 29.5 | – | – | – | > 100 | – | 68 | – | – |
| CCC1(Br)C(=O)NC(=O)N(C2CC(O)C(CO)O2)C1N=[N+]=[N-] (configuration not stated) | – | > 100 | – | > 100 | – | > 100 | – | – | – | > 100 | – | > 100 | – | > 100 | – | > 100 | – | > 100 | > 100 | – |
| CC(=O)c1cccc(N(/C=C/C(=O)C(F)(F)F)CC(=O)c2ccc(Cl)cc2)c1 | > 100 | > 100 | > 100 | > 100 | > 100 | > 100 | – | – | > 100 | > 100 | > 100 | > 100 | > 100 | > 100 | > 100 | > 100 | > 100 | > 100 | > 100 | > 100 |
| O=[N+]([O-])c1ccc(N=Nc2c(O)[nH]c3ccc([N+](=O)[O-])cc23)cc1 | – | 26.4 | – | – | – | > 100 | – | > 100 | – | 38.6 | – | 26.7 | – | 44.9 | – | 38 | – | 59.7 | 36.5 | – |
| CSc1ccc(C2=Nn3c(nnc3-c3ccc(F)c(Cl)c3)SC2)cc1 | 14.6 | 38.6 | 2.67 | 9.78 | 10.8 | 43.1 | – | – | 23.6 | 85.1 | 11.9 | 52.7 | 37.4 | > 100 | 75.7 | > 100 | 67.6 | > 100 | 19.4 | 4.46 |
| C[n+]1cc2c3c(ccc2c2ccc4cc5c(cc4c21)OCO5)OCO3 | 1.29 | 3.7 | – | – | 0.171 | 0.411 | 0.258 | – | – | – | 1.16 | 2.39 | 0.72 | 2.18 | 0.489 | 1.7 | 1.18 | 2.43 | 1.32 | 0.351 |
| C=C1C(=O)O[C@@H]2C[C@@]3(C)CC(=O)C=C(C)[C@@H]3C[C@H]12 | – | – | – | 26.2 | – | 38.1 | – | – | – | 23.2 | – | 22.9 | – | 29.9 | – | 42.5 | – | 41.7 | 18.2 | – |
| CC(C)N(C(C)C)[PH+]1O[PH+](N(C(C)C)C(C)C)O[PH+](N(C(C)C)C(C)C)O[PH+](N(C(C)C)C(C)C)O[PH+](N(C(C)C)C(C)C)O1.[C-]#[O+].[C-]#[O+].[C-]#[O+].[C-]#[O+].[C-]#[O+].[C-]#[O+].[C-]#[O+].[Cr].[Cr] (configuration not stated) | > 100 | > 100 | > 100 | > 100 | > 100 | > 100 | – | – | > 100 | > 100 | > 100 | > 100 | > 100 | > 100 | > 100 | > 100 | > 100 | > 100 | > 100 | > 100 |
| O=C(C(=O)c1ccc(Cc2ccc(C(=O)C(=O)c3ccccc3)cc2)cc1)c1ccccc1 | – | > 100 | – | > 100 | – | > 100 | – | – | – | > 100 | – | > 100 | – | > 100 | – | > 100 | – | > 100 | > 100 | – |
| C[C@]12CC[C@@H]3c4ccc(O)c([N+](=O)[O-])c4CC[C@H]3[C@@H]1CC[C@@H]2NS(=O)(=O)c1ccc(C(F)(F)F)cc1 | 2.11 | 4.83 | 1.6 | 3.1 | 1.67 | 3.07 | 1.65 | 4.14 | 2.44 | 8.88 | 1.72 | 3.28 | 1.84 | 4.1 | 2.28 | 7.55 | 1.87 | 4.74 | – | – |
| CSc1nc2c(c(O)c(C)c(=O)n2C2OC(COC(C)=O)C(OC(C)=O)C(OC(C)=O)C2OC(C)=O)c(=O)n1C (configuration not stated) | – | > 100 | – | > 100 | – | > 100 | – | – | – | > 100 | – | > 100 | – | > 100 | – | > 100 | – | > 100 | > 100 | – |
